Each compound was assayed against T1, CDK2 (Homo sapiens, UniProt P24941) (assay: Phospho-RB measurement in OVCAR3 cells (HTRF phospho-RB S807/811)). Details: phosphorylation of RB protein at S807/811, HTRF, 24 h compound treatment, 0.3 to 10,000 nM, read-out: pRb (uM).
T1 construct: endogenous in cells; host or cells: OVCAR3 cells
Assay type: cell-based
Method: The ability of compounds of Formula (I) to inhibit CDK2 was determined in OVCAR3 cells. Phosphorylation of RB protein at S807/811 were measured using HTRF phospho-RB cellular kits (Cat #64RBS807PEG) from Cisbio.
On Day 1, OVCAR3 cells were seeded into 96-well tissue-culture treated plates at 20,000 cells/well in 200 μL and incubated overnight at 37° C. in CO2 atmosphere. On Day 2, the cells were treated with test compounds at concentrations from 0.3 to 10,000 nM using HP D300 digital dispenser. Twenty-four hours after compound treatment, cell culture media was removed by flicking the plate and tapping the plate against clean paper towel. Immediately 30 μL 1× lysis buffer was supplemented from the kit and the plate was incubated at room temperature on shaker for 30 min. After homogenization by pipetting up and down, 8 μL cell lysate from 96-well cell culture plate was transferred to 384-well small volume white detection plate. 2 μL premixed detection solution was added and the plate was covered with sealer. To prepare the detection solution, d2 conjugated-phospho-RB antibody and Eu-cryptate conjugated phosphor-RB antibody were diluted into detection buffer following manufacturer's instruction.
Detection plates were incubated for 4 h at room temperature and read on ClarioStar (BMG Labtech) in TR-FRET mode ([…]). The TR-FRET ratio (665 nM1/620 nM) was plotted against the compound concentration and normalized to DMSO controls. Half maximal inhibition concentration (IC50) values are calculated with a four-parameter logistic fit using GraphPad Prism (version 8; La Jolla, CA).

IC50 [µM] | Structure (SMILES)
1.55 | CN(C)C1CC2CCC(C1)N2c1nc(-c2cccc(NS(=O)(=O)c3c(F)cccc3F)c2F)c(-c2ccnc(NC3CC4(C3)CS(=O)(=O)C4)n2)s1 (stereo not shown) [Example 25, N-(3-(2-(3-(dimethylamino)-8-azabicyclo[3.2.1]octan-8-yl)-5-(2-((2,2-dioxido-2-thiaspiro[3.3]heptan-6-yl)amino)pyrimidin-4-yl)thiazol-4-yl)-2-fluorophenyl)-2,6-difluorobenzenesulfonamide]
0.016 | O=S1(=O)CC2(CC(Nc3nccc(-c4sc(C56CC(C5)C6)nc4-c4cccc(NS(=O)(=O)c5c(F)cccc5C(F)(F)F)c4F)n3)C2)C1 [Example 26, N-(3-(2-(bicyclo[1.1.1]pentan-1-yl)-5-(2-((2,2-dioxido-2-thiaspiro[3.3]heptan-6-yl)amino)pyrimidin-4-yl)thiazol-4-yl)-2-fluorophenyl)-2-fluoro-6-(trifluoromethyl)benzenesulfonamide]
0.066 | CS(=O)(=O)C1CCC(Nc2nccc(-c3sc(C45CC(F)(C4)C5)nc3-c3cccc(NS(=O)(=O)c4c(F)cccc4C(F)(F)F)c3F)n2)CC1 (stereo not shown) [Example 27, 2-fluoro-N-(2-fluoro-3-(2-(3-fluorobicyclo[1.1.1]pentan-1-yl)-5-(2-(((1s,4s)-4-(methylsulfonyl)cyclohexyl)amino)pyrimidin-4-yl)thiazol-4-yl)phenyl)-6-(trifluoromethyl)benzenesulfonamide]
1.17 | CN1CC2CCC1CN2c1nc(-c2cccc(NS(=O)(=O)c3c(F)cccc3F)c2F)c(-c2ccnc(NC3CC4(C3)CS(=O)(=O)C4)n2)s1 (stereo not shown) [Example 28, N-(3-(5-(2-((2,2-dioxido-2-thiaspiro[3.3]heptan-6-yl)amino)pyrimidin-4-yl)-2-(5-methyl-2,5-diazabicyclo[2.2.2]octan-2-yl)thiazol-4-yl)-2-fluorophenyl)-2,6-difluorobenzenesulfonamide]
0.27 | CC1(C)CCN1c1nc(-c2cccc(NS(=O)(=O)c3c(F)cccc3F)c2F)c(-c2ccnc(NC3CC4(C3)CS(=O)(=O)C4)n2)s1 [Example 29, N-(3-(2-(2,2-dimethylazetidin-1-yl)-5-(2-((2,2-dioxido-2-thiaspiro[3.3]heptan-6-yl)amino)pyrimidin-4-yl)thiazol-4-yl)-2-fluorophenyl)-2,6-difluorobenzenesulfonamide]
0.07 | O=S1(=O)CC2(CC(Nc3nccc(-c4sc(C56CC(C5)C6)nc4-c4cccc(NS(=O)(=O)c5c(Cl)cccc5Cl)c4F)n3)C2)C1 [Example 31, N-(3-(2-(bicyclo[1.1.1]pentan-1-yl)-5-(2-((2,2-dioxido-2-thiaspiro[3.3]heptan-6-yl)amino)pyrimidin-4-yl)thiazol-4-yl)-2-fluorophenyl)-2,6-dichlorobenzenesulfonamide]
0.08 | O=S1(=O)CC2(CC(Nc3nccc(-c4sc(C56CCC(CC5)C6)nc4-c4cccc(NS(=O)(=O)c5c(F)cccc5F)c4F)n3)C2)C1 [Example 32, N-(3-(2-(bicyclo[2.2.1]heptan-1-yl)-5-(2-((2,2-dioxido-2-thiaspiro[3.3]heptan-6-yl)amino)pyrimidin-4-yl)thiazol-4-yl)-2-fluorophenyl)-2,6-difluorobenzenesulfonamide]
0.1 | CC1(C#N)CC2CCC(C1)N2c1nc(-c2cccc(NS(=O)(=O)c3c(F)cccc3F)c2F)c(-c2ccnc(NC3CC4(C3)CS(=O)(=O)C4)n2)s1 (stereo not shown) [Example 33, N-(3-(2-(3-cyano-3-methyl-8-azabicyclo[3.2.1]octan-8-yl)-5-(2-((2,2-dioxido-2-thiaspiro[3.3]heptan-6-yl)amino)pyrimidin-4-yl)thiazol-4-yl)-2-fluorophenyl)-2,6-difluorobenzenesulfonamide]
2.01 | O=S1(=O)CC2(CC(Nc3nccc(-c4sc(C56CC(CO)(C5)C6)nc4-c4cccc(NS(=O)(=O)c5c(F)cccc5F)c4F)n3)C2)C1 [Example 34, N-(3-(5-(2-((2,2-dioxido-2-thiaspiro[3.3]heptan-6-yl)amino)pyrimidin-4-yl)-2-(3-(hydroxymethyl)bicyclo[1.1.1]pentan-1-yl)thiazol-4-yl)-2-fluorophenyl)-2,6-difluorobenzenesulfonamide]
0.29 | CS(=O)(=O)[C@H]1CC[C@H](Nc2nccc(-c3sc(C45CC(C(F)(F)F)(C4)C5)nc3-c3cccc(NS(=O)(=O)c4c(F)cccc4C(F)(F)F)c3F)n2)CC1 [Example 35, 2-fluoro-N-(2-fluoro-3-(5-(2-(((1r,4r)-4-(methylsulfonyl)-cyclohexyl)amino)pyrimidin-4-yl)-2-(3-(trifluoromethyl)-bicyclo[1.1.1]pentan-1-yl)thiazol-4-yl)phenyl)-6-(trifluoromethyl)-benzenesulfonamide]
0.09 | CS(=O)(=O)[C@H]1CC[C@H](Nc2nccc(-c3sc(C45CC(C4)C5)nc3-c3cccc(NS(=O)(=O)c4c(F)cccc4C(F)(F)F)c3F)n2)CC1 [Example 36]
0.42 | O=S1(=O)CC2(CC(Nc3nccc(-c4sc(N5CC6CCC(C5)N6c5ccccn5)nc4-c4cccc(NS(=O)(=O)c5c(F)cccc5F)c4F)n3)C2)C1 [Example 37, N-(3-(5-(2-((2,2-dioxido-2-thiaspiro[3.3]heptan-6-yl)amino)-pyrimidin-4-yl)-2-(8-(pyridin-2-yl)-3,8-diazabicyclo[3.2.1]octan-3-yl)thiazol-4-yl)-2-fluorophenyl)-2,6-difluorobenzenesulfonamide]
8.12 | O=S1(=O)CCC(N2CC3CCC(C2)N3c2nc(-c3cccc(NS(=O)(=O)c4c(F)cccc4F)c3F)c(-c3ccnc(NC4CC5(C4)CS(=O)(=O)C5)n3)s2)CC1 [Example 38, N-(3-(5-(2-((2,2-dioxido-2-thiaspiro[3.3]heptan-6-yl)amino)-pyrimidin-4-yl)-2-(3-(1,1-dioxidotetrahydro-2H-thiopyran-4-yl)-3,8-diazabicyclo[3.2.1]octan-8-yl)thiazol-4-yl)-2-fluorophenyl)-2,6-difluorobenzenesulfonamide]
0.35 | O=S1(=O)CC2(CC(Nc3nccc(-c4sc(C56CC(C(F)(F)F)(C5)C6)nc4-c4cccc(NS(=O)(=O)c5c(F)cccc5F)c4F)n3)C2)C1 [Example 39, N-(3-(5-(2-((2,2-dioxido-2-thiaspiro[3.3]heptan-6-yl)amino)-pyrimidin-4-yl)-2-(3-(trifluoromethyl)bicyclo[1.1.1]pentan-1-yl)thiazol-4-yl)-2-fluorophenyl)-2,6-difluorobenzenesulfonamide]
1.7 | O=S1(=O)CC2(CC(Nc3nccc(-c4sc(N5C6CCC5CN(Cc5ccccc5)C6)nc4-c4cccc(NS(=O)(=O)c5c(F)cccc5F)c4F)n3)C2)C1 [Example 40, N-(3-(2-(3-benzyl-3,8-diazabicyclo[3.2.1]octan-8-yl)-5-(2-((2,2-dioxido-2-thiaspiro[3.3]heptan-6-yl)amino)pyrimidin-4-yl)thiazol-4-yl)-2-fluorophenyl)-2,6-difluorobenzenesulfonamide]
0.36 | O=S1(=O)CC2(CC(Nc3nccc(-c4sc(C56CC(C5)C6)nc4-c4cccc(NS(=O)(=O)c5c(F)cccc5C5CC5)c4F)n3)C2)C1 [Example 41, N-(3-(2-(bicyclo[1.1.1]pentan-1-yl)-5-(2-((2,2-dioxido-2-thiaspiro[3.3]heptan-6-yl)amino)pyrimidin-4-yl)thiazol-4-yl)-2-fluorophenyl)-2-cyclopropyl-6-fluorobenzenesulfonamide]
